In brackets after ≈: the same amount, converted by molar mass.
How the values were obtained:
[1] = test system: E. fecalis; assay: Minimal Inhibitory Concentration (MIC) determination, 96 well plates; format: cell-based, Enterococcus fecalis; conditions: Enterococcus; HBI medium, 16 to 18 hours at 37°C; read-out: MIC (µg/ml) E. fecalis
Method: (§1) The following methods were used to characterize representative compounds. Minimal Inhibitory Concentration (MIC) determinations. MIC values were determined in 96 well plates, with bacterial growth monitored at OD 600 nm in 200µl following an initial bacterial seeding at approximately 1x10^5 colony forming units (CFU)/ml. Each drug is evaluated at five concentrations, with five data points at each dilution. MIC values (µg/ml) were determined against actively growing cultures in Heart-Brain Infusion (HBI) medium. Cell growth in cultures supplemented with a test compound was calculated as a percent of control at OD 600 nm after 16 to 18 hours at 37°C. […] Polymerase IIIC (Pol IIIC) assay. DNA polymerase activity (or inhibition thereof) was measured in a 96-well plate format. B. subtilis Pol IIIC was isolated as described by Hammond and Brown (Protein Expr. Purif., 3: 65-70 (1992)). Each 25 µl assay contained 30 mM Tris, pH 7.5, 10 mM magnesium acetate, 4 mM dithiothreitol, 20% glycerol, with 25 µM dATP, dCTP, dGTP and 10 µM dTTP (^3H-labelled at 1.44 Ci/mmole) and 0.4 mg/ml activated calf thymus DNA as substrates, as described previously (see Barnes et al, op. cit). Assays were initiated by the addition of 0.025 to 0.06 units of enzyme 1 unit is the amount required to incorporate 250 pmoles of [^3H] dTMP in a standard assay), incubated for 10 minutes at 30°C and terminated by the addition of 200 µl of cold 10% trichloroacetic acid (TCA),10 mM sodium pyrophosphate. Precipitated labeled DNA was collected on glass fiber filter plates, washed, dried, and counted in a liquid scintillation counter. Determination of Ki values. DNA polymerase activity was measured in a 96-well plate format in the absence of dGTP or dATP, depending on the structure of the test compound. Each 25 µl assay contained 30 mM Tris, pH 7.5, 10 mM magnesium acetate, 4 mM dithiothreitol, 20% glycerol, with 25 µM dATP, dCTP, and 10 µM dTTP (^3H-labelled at 1.44 Ci/mmole) and 0.4 mg/ml activated calf thymus DNA as substrates, as described previously. […] Assays were initiated by the addition of 0.025 to 0.06 units of enzyme (1 unit is the amount required to incorporate 250 pmoles of [^3H] dTMP in a standard assay), incubated for 10 minutes at 30 °C and terminated by the addition of 200 µl of cold 10% trichloroacetic acid, 10 mM sodium pyrophosphate. Precipitated labeled DNA was collected on glass fiber filter plates, washed, dried, and counted in a liquid scintillation counter. Ki is the concentration of test compound that reduces the control polymerase IIIC activity by 50 percent.
(§2) MIC values were determined for the Gram positive bacteria Bacillus subtilis, Staphylococcus aureus (two strains), Enterococcus fecalis, Enterococcus fecium, and for the Gram negative bacterium Escherichia coli.

[2] = test system: E. coli; assay: as above; format: cell-based, Escherichia coli; conditions: Escherichia coli; HBI medium, 16 to 18 hours at 37°C; read-out: MIC (µg/ml) E. coli
Method: (§3) The following methods were used to characterize representative compounds. Minimal Inhibitory Concentration (MIC) determinations. MIC values were determined in 96 well plates, with bacterial growth monitored at OD 600 nm in 200µl following an initial bacterial seeding at approximately 1x10^5 colony forming units (CFU)/ml. Each drug is evaluated at five concentrations, with five data points at each dilution. MIC values (µg/ml) were determined against actively growing cultures in Heart-Brain Infusion (HBI) medium. Cell growth in cultures supplemented with a test compound was calculated as a percent of control at OD 600 nm after 16 to 18 hours at 37°C. This plate format conserves test compound and provides precise, quantitative data with low standard deviation determinations. Polymerase IIIC (Pol IIIC) assay. DNA polymerase activity (or inhibition thereof) was measured in a 96-well plate format. B. subtilis Pol IIIC was isolated as described by Hammond and Brown (Protein Expr. Purif., 3: 65-70 (1992)). Each 25 µl assay contained 30 mM Tris, pH 7.5, 10 mM magnesium acetate, 4 mM dithiothreitol, 20% glycerol, with 25 µM dATP, dCTP, dGTP and 10 µM dTTP (^3H-labelled at 1.44 Ci/mmole) and 0.4 mg/ml activated calf thymus DNA as substrates, as described previously (see Barnes et al, op. cit). Assays were initiated by the addition of 0.025 to 0.06 units of enzyme 1 unit is the amount required to incorporate 250 pmoles of [^3H] dTMP in a standard assay), incubated for 10 minutes at 30°C and terminated by the addition of 200 µl of cold 10% trichloroacetic acid (TCA),10 mM sodium pyrophosphate. Precipitated labeled DNA was collected on glass fiber filter plates, washed, dried, and counted in a liquid scintillation counter. Determination of Ki values. DNA polymerase activity was measured in a 96-well plate format in the absence of dGTP or dATP, depending on the structure of the test compound. Each 25 µl assay contained 30 mM Tris, pH 7.5, 10 mM magnesium acetate, 4 mM dithiothreitol, 20% glycerol, with 25 µM dATP, dCTP, and 10 µM dTTP (^3H-labelled at 1.44 Ci/mmole) and 0.4 mg/ml activated calf thymus DNA as substrates, as described previously. To each well were added 2 µl of compound solution to give final concentrations ranging from 20 - 0.027 µg/ml in the assay. Assays were initiated by the addition of 0.025 to 0.06 units of enzyme (1 unit is the amount required to incorporate 250 pmoles of [^3H] dTMP in a standard assay), incubated for 10 minutes at 30 °C and terminated by the addition of 200 µl of cold 10% trichloroacetic acid, 10 mM sodium pyrophosphate. Precipitated labeled DNA was collected on glass fiber filter plates, washed, dried, and counted in a liquid scintillation counter. Ki is the concentration of test compound that reduces the control polymerase IIIC activity by 50 percent.
as §2

[3] = biological target: T1, B. subtilis Pol IIIC (Bacillus subtilis, UniProt P13267); assay: Polymerase IIIC (Pol IIIC) assay, determination of Ki values; format: biochemical; conditions: Ki (µM) Pol IIIC, assay in absence of dGTP or dATP; Ki is the concentration that reduces control polymerase IIIC activity by 50 percent
T1 construct: made in house
Method: as §1

[4] = test system: E. fecium; assay: Minimal Inhibitory Concentration (MIC) determination, 96 well plates; format: cell-based, Enterococcus fecium; conditions: Enterococcus; HBI medium, 16 to 18 hours at 37°C; read-out: MIC (µg/ml) E. fecium
Method: as §1, §2

[5] = test system: S.aureus (Smith); assay: as above; format: cell-based, Staphylococcus aureus; conditions: Staphylococcus aureus; HBI medium, 16 to 18 hours at 37°C; read-out: MIC (µg/ml) S.aureus (Smith)
Method: as §1, §2

[6] = test system: S. aureus; assay: as above; format: cell-based, Staphylococcus aureus; conditions: Staphylococcus aureus; HBI medium, 16 to 18 hours at 37°C; read-out: MIC (µg/ml) S. aureus
Method: as §3, §2

[7] = test system: B. subtilis; assay: as above; format: cell-based, Bacillus subtilis; conditions: Bacillus subtilis; HBI medium, 16 to 18 hours at 37°C; read-out: MIC (µg/ml) B. subtilis
Method: as §1, §2

T1 sequence (P13267 whole entry): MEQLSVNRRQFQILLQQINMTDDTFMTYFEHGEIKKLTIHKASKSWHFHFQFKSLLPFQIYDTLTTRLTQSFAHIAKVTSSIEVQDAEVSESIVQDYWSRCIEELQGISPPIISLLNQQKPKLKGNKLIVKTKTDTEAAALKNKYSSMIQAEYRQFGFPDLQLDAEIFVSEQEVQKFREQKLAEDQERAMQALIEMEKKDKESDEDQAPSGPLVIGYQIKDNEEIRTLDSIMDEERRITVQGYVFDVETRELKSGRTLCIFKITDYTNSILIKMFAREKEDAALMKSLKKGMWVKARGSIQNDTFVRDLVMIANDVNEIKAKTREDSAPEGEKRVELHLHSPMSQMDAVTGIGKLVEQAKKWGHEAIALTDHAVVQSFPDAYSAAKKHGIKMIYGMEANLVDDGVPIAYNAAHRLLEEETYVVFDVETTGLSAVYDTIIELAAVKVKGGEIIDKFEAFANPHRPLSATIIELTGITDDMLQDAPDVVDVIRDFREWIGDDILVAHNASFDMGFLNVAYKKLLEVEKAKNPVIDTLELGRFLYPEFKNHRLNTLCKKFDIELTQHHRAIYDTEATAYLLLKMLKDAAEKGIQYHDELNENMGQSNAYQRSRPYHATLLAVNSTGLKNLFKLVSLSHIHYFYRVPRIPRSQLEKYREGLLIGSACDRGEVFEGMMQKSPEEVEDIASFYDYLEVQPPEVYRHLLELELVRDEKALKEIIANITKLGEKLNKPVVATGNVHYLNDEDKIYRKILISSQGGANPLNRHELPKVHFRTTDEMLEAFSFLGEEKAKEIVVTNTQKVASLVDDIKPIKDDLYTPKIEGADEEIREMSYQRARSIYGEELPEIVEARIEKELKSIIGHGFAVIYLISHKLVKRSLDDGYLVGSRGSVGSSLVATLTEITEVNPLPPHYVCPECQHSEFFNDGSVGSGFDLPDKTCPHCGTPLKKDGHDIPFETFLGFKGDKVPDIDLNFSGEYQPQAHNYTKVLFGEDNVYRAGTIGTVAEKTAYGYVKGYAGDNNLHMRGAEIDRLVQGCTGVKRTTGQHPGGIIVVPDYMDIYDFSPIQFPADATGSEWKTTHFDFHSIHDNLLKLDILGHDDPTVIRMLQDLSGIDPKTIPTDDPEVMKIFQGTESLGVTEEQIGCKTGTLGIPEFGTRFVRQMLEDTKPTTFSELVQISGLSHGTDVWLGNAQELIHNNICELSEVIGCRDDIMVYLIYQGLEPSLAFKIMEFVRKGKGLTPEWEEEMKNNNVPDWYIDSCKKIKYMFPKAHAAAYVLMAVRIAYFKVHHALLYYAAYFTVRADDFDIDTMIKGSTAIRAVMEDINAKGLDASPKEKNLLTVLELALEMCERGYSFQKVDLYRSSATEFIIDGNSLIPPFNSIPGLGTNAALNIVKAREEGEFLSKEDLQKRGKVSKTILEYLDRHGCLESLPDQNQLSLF

| SMILES | MIC [1] [µg/mL] | MIC [2] [µg/mL] | Ki [3] [µM] | MIC [4] [µg/mL] | MIC [5] [µg/mL] | MIC [6] [µg/mL] | MIC [7] [µg/mL] |
| --- | --- | --- | --- | --- | --- | --- | --- |
| CCc1cc(Nc2cc(=O)n(CCCCN3CCN(c4cc5c(cc4F)c(=O)c(C(=O)O)cn5C4CC4)C[C@@H]3C)c(=O)[nH]2)ccc1C [Compound 100, (S)-3-{4-[1-(1-cyclopropyl-3-carboxy-4-oxo-6-fluoro-7-quinolyl)-3-methyl-4-piperazinyl]butyl}-6-(3-ethyl-4-methylanilino)uracil] | 0.475 (≈ 0.737 µM) | 50 (≈ 77.5 µM) | 0.011 | 0.937 (≈ 1.45 µM) | 0.625 (≈ 0.969 µM) | 0.937 (≈ 1.45 µM) | 0.156 (≈ 0.242 µM) |
| CCc1cc(Nc2cc(=O)n(CCCCCCCN3CCN(c4cc5c(cc4F)c(=O)c(C(=O)O)cn5C4CC4)CC3)c(=O)[nH]2)ccc1C [Compound 8, 3-{7-[1-(1-cyclopropyl-3-carboxy-4-oxo-6-fluoro-7-quinolyl)-4-piperazinyl]heptyl}-6-(3-ethyl-4-methylanilino)uracil] | 10 (≈ 14.9 µM) | 40 (≈ 59.5 µM) | 0.013 | > 80 | 0.625 (≈ 0.929 µM) | 1.25 (≈ 1.86 µM) | 0.313 (≈ 0.465 µM) |
| CCc1cc(Nc2cc(=O)n(CCCCN3CCN(c4c(F)cc5c(=O)c(C(=O)O)cn(C6CC6)c5c4F)C[C@@H]3C)c(=O)[nH]2)ccc1C [Compound 71, (S)-3-{4-[1-(1-cyclopropyl-3-carboxy-4-oxo-6,8-difluoro-7-quinolyl)-3-methyl-4-piperazinyl]butyl}-6-(3-ethyl-4-methylanilino)uracil] | 1.25 (≈ 1.89 µM) | 5 (≈ 7.54 µM) | 0.007 | 1.87 (≈ 2.82 µM) | 0.156 (≈ 0.235 µM) | 0.313 (≈ 0.472 µM) | 0.156 (≈ 0.235 µM) |
| CCc1cc(Nc2cc(=O)n(CCCCN3CCOC4CN(c5cc6c(cc5F)c(=O)c(C(=O)O)cn6C5CC5)CC43)c(=O)[nH]2)ccc1C (stereo not shown) [Compound 87, 3-{4-[1-(1-cyclopropyl-3-carboxy-4-oxo-6-fluoro-7-quinolyl)-3-(5-oxa-1,3-diazabicyclononyl)]butyl}-6-(3-ethyl-4-methylanilino)uracil] | 2.5 (≈ 3.72 µM) | > 40 | 0.088 | 7.5 (≈ 11.1 µM) | 0.625 (≈ 0.929 µM) | 1.87 (≈ 2.78 µM) | 0.313 (≈ 0.465 µM) |
| O=C(O)c1cn(C2CC2)c2cc(N3CCN(CCCCn4c(=O)cc(Nc5ccc6c(c5)CCC6)[nH]c4=O)CC3)c(F)cc2c1=O [Compound 67, 3-{4-[1-(1-cyclopropyl-3-carboxy-4-oxo-6-fluoro-7-quinolyl)-4-piperazinyl]butyl}-6-(5-indanylamino)uracil] | 1.25 (≈ 1.99 µM) | 10 (≈ 15.9 µM) | 0.034 | 2.5 (≈ 3.98 µM) | 0.313 (≈ 0.498 µM) | 0.625 (≈ 0.994 µM) | 0.23 (≈ 0.366 µM) |
| CCc1cc(Nc2cc(=O)n(CCCCCN3CCOC4CN(c5cc6c(cc5F)c(=O)c(C(=O)O)cn6C5CC5)CC43)c(=O)[nH]2)ccc1C (stereo not shown) [Compound 84, 3-{5-[1-(1-cyclopropyl-3-carboxy-4-oxo-6-fluoro-7-quinolyl)-3-(5-oxa-1,3-diazabicyclononyl)]pentyl}-6-(3-ethyl-4-methylanilino)uracil] | 2.5 (≈ 3.64 µM) | > 80 | 0.033 | 25 (≈ 36.4 µM) | 0.625 (≈ 0.91 µM) | 1.25 (≈ 1.82 µM) | 0.313 (≈ 0.456 µM) |
| CCc1cc(Nc2cc(=O)n(CCCCN3CCN(c4cc5c(cc4F)c(=O)c(C(=O)O)cn5C4CC4)C(C)C3)c(=O)[nH]2)ccc1C (stereo not shown) [Compound 69, 3-{4-[1-(1-cyclopropyl-3-carboxy-4-oxo-6-fluoro-7-quinolyl)-2-methyl-4-piperazinyl]butyl}-6-(3-ethyl-4-methylanilino)uracil] | 0.95 (≈ 1.47 µM) | 30 (≈ 46.5 µM) | 0.026 | 1.25 (≈ 1.94 µM) | 0.46 (≈ 0.713 µM) | 0.625 (≈ 0.969 µM) | 0.23 (≈ 0.357 µM) |
| Cc1ccc(Nc2cc(=O)n(CCCCN3CCN(c4cc5c(cc4F)c(=O)c(C(=O)O)cn5C4CC4)CC3)c(=O)[nH]2)cc1C [Compound 65, 3-{4-[1-(1-cyclopropyl-3-carboxy-4-oxo-6-fluoro-7-quinolyl)-4-piperazinyl]butyl}-6-(3,4-dimethylanilino)uracil] | 1.87 (≈ 3.03 µM) | 10 (≈ 16.2 µM) | 0.095 | 1.87 (≈ 3.03 µM) | 0.46 (≈ 0.746 µM) | 0.95 (≈ 1.54 µM) | 0.23 (≈ 0.373 µM) |
| CCc1cc(Nc2cc(=O)n(CCCCCNC3CCN(c4cc5c(cc4F)c(=O)c(C(=O)O)cn5C4CC4)C3)c(=O)[nH]2)ccc1C (stereo not shown) [Compound 83, 3-{5-[1-(1-cyclopropyl-3-carboxy-4-oxo-6-fluoro-7-quinolyl)-3-(pyrrolidinylamino)]pentyl}-6-(3-ethyl-4-methylanilino)uracil] | 5 (≈ 7.75 µM) | > 80 | 0.041 | 40 (≈ 62 µM) | 5 (≈ 7.75 µM) | 20 (≈ 31 µM) | 3.7 (≈ 5.74 µM) |
| CCc1cc(Nc2cc(=O)n(CCCCN3CCN(c4cc5c(cc4F)c(=O)c(C(=O)O)cn5-c4ccc(F)cc4F)CC3C)c(=O)[nH]2)ccc1C (stereo not shown) [Compound 89, 3-{4-[1-(1-{2,4-difluorophenyl}-3-carboxy-4-oxo-6-fluoro-7-quinolyl)-3-methyl-4-piperazinyl]butyl}-6-(3-ethyl-4-methylanilino)uracil] | 0.625 (≈ 0.872 µM) | > 80 | 0.018 | 0.625 (≈ 0.872 µM) | 0.156 (≈ 0.218 µM) | 0.313 (≈ 0.437 µM) | 0.156 (≈ 0.218 µM) |

Reference: patent publication EP1401829B1, “NOVEL HETEROCYCLIC ANTIBACTERIAL COMPOUNDS” (Microbiotix, Inc., priority 2001, dated 2002)
